Experimental data published in patent US20250352562A1, “PREVENTION OF SYMPATHETIC DENERVATION OF THE PINEAL GLAND IN CARDIAC DISEASE” (TECHNISCHE UNIVERSITÄT MÜNCHEN, priority 2022, published 2025).
Entries after “also recorded” stand apart in the source; their conditions may differ.

Experiments:
[1] = tested on: nicotine-stimulated sympathetic neurons co-cultured with LPS-preactivated macrophages; test: Co-culture of sympathetic neurons and bone marrow-derived macrophages; format: cell-based, mouse; conditions: CVF 20 U/ml for 90 min on LPS-preactivated macrophages; 1 μM nicotine; 48 h co-culture
Description: For the co-culture experiment, BMDM precursors were isolated and differentiated to macrophages as mentioned above. On day 6 of differentiation, primary neurons were isolated as described above. ˜5,000 neurons were seeded on separate wells of a 96-well Ibidi plate precoated with Laminin (0.1 mg/ml). At day 7 of differentiation, macrophages were either stimulated with PBS (control) or LPS (5 ng/ml) overnight. On the following day, LPS-preactivated macrophages were either incubated with PBS (control) or Cobra Venom Factor (CVF; 20 U/ml) for 90 min at 37° C. for complement inhibition. Afterwards, macrophages were chemically detached from the Petri dishes using Accutase and seeded around neurons. ˜10,000 macrophages were added per well. Co-culture medium was a mixture of neuronal and macrophage medium. Furthermore, part of the co-culture medium was supplemented with 1 μM Nicotine for artificial neuronal stimulation. 4 wells were cultivated per condition. One well per condition was transferred into the EVOS M7000 for live cell imaging (timelapse). […]
After 48 hours of co-culture (at 37° C. and 5% CO2), cells were fixated using 4% Paraformaldehyde. […] For quantification, two tilescans (2×2) per well were acquired using a 63× objective of a confocal microscope (Leica TCS SP5 II) and quantified for neuronal cell number and axonal dimensions using Imaris (Bitplane, version 9.5). […]

[2] = tested on: C3H/HeJ mice after bilateral removal of SCG (SCGx); test: Assessment of diurnal rhythm after bilateral removal of SCG (SCGx); format: in vivo; conditions: 50 μg melatonin once intraperitoneally

Row | Compound | neurite outgrowth (axon length, branching points) [1] | neuronal cell loss (neuronal cell number per field of view) [1] | diurnal rhythmicity (activity, ratio between dark and light) [2]
1 | Cobra venom factor | rescued | effectively prevented | 
2 | COc1ccc2[nH]cc(CCNC(C)=O)c2c1 [melatonin] |  |  | completely restored; also recorded: rescued
